From patent publication US20230091225A1, “Bifunctional chimeric heterocyclic compounds for targeted degradation of androgen receptors and use thereof” (HINOVA PHARMACEUTICALS INC., priority 2019, published 2023) come the findings set out here.

This test concerns the target T1, androgen receptor (AR) (Homo sapiens, UniProt P10275).
T1 sequence (P10275 1-920): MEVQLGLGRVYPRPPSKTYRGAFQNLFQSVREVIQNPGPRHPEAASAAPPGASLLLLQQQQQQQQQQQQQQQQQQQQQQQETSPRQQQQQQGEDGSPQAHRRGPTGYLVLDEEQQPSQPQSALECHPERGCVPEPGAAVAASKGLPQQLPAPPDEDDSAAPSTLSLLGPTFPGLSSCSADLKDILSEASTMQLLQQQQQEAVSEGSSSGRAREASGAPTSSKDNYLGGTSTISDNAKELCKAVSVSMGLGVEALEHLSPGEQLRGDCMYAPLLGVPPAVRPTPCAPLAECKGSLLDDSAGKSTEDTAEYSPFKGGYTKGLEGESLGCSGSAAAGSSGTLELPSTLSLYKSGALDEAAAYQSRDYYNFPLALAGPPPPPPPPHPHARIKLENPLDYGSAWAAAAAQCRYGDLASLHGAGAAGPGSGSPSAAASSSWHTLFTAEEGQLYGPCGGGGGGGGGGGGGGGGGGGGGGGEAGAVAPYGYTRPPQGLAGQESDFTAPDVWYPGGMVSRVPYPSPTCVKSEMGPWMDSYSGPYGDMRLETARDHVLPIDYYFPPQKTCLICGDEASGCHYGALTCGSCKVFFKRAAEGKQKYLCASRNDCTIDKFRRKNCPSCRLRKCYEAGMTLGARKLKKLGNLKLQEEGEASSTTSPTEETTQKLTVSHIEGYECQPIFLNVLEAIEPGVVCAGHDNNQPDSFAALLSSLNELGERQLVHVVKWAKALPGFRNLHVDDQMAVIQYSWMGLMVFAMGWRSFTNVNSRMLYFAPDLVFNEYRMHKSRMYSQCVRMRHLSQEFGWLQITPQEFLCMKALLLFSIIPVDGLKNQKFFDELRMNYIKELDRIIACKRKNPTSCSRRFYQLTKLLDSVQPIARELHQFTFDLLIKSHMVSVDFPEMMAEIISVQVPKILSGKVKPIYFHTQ
The experiment in a line: Degradation of androgen receptor (AR) protein in VCaP cells by ELISA. The settings on record: for Dmax: VCaP; for inhibition at 0.1 µM: percentage of degraded AR at 100 nM, read-out: % degradation. In kind it is cell-based.

The mark [1] stands for this setting: AR degradation, VCaP cells, 16 h, ELISA, Table 3-1, read-out: DC50.
[2] abbreviates: AR degradation, VCaP cells, 16 h, ELISA, Table 3-1, read-out: Dmax (%).

Like-named read-outs stand apart in the source and are kept apart here.

As for `N#Cc1ccc(O[C@H]2CC[C@H](NC(=O)c3cnc(N4CCC(CN5CCC6(C5)CN(c5cc7c(cc5F)C(=O)N(C5CCC(=O)NC5=O)C7=O)C6)CC4)cn3)CC2)cc1Cl` (stereo partly drawn) [Compound 186, N-((1r,4r)-4-(3-chloro-4-cyanophenoxy)cyclohexyl)-5-(4-((2-(2-(2,6-dioxopiperidin-3-yl)-6-fluoro-1,3-dioxoisoindolin-5-yl)-2,6-diazaspiro[3.4]octan-6-yl)methyl)piperidin-1-yl)pyrazine-2-carboxamide], the DC50 under setting [1] is less than 10 nM. For the same compound, under setting [2], the greatest degradation seen (Dmax) was more than 80%.

Consider `N#Cc1ccc(O[C@H]2CC[C@H](NC(=O)c3cnn([C@H]4CC[C@H](CN5CCC6(CC5)CN(c5ccc7c(c5)C(=O)N(C5CCC(=O)NC5=O)C7=O)C6)CC4)c3)CC2)cc1Cl` (stereo partly drawn) [Compound 245], for which the Dmax was in the range of 60 to 80%. The DC50 under setting [1] lay in the range of 10 to 100 nM.

`Cc1cc(O[C@H]2C(C)(C)[C@H](N3Cc4nc(C#C[C@H]5CC[C@H](N6CCN(c7cc8c(cc7F)C(=O)N(C7CCC(=O)NC7=O)C8=O)CC6)CC5)ccc4C3=O)C2(C)C)ccc1C#N` (stereo partly drawn) [Compound 401] showed a Dmax of more than 80%. Where the note is “AR degradation, VCaP cells, 16 h, ELISA, Table 3-2, read-out: DC50”, the DC50 was 10 to 100 nM.

As to `CCOc1cc(O[C@H]2CC[C@H](NC(=O)c3ccc(N4CCC(CN5CCC6(CC5)CN(c5ccc7c(c5)C(=O)N(C5CCC(=O)NC5=O)C7=O)C6)CC4)nn3)CC2)ccc1C#N` (stereo partly drawn) [Compound 154], the DC50 is less than 10 nM and the Dmax was more than 80%.

On to `CC1(C)[C@H](Oc2ccc(C#N)c(Cl)c2)C(C)(C)[C@H]1N1Cc2nc(C#CC3CCC(N4CC5(CCN(c6cc7c(cc6F)C(=O)N(C6CCC(=O)NC6=O)C7=O)CC5)C4)CC3)ccc2C1=O` (stereo partly drawn) [Compound 378, 2-Chloro-4-((1 r,3r)-3-(2-((4-(7-(2-(2,6-dioxopiperidin-3-yl)-6-fluoro-1,3-dioxoisoindolin-5-yl)-2,7-diazaspiro[3.5]nonan-2-yl)cyclohexyl)ethynyl)-5-oxo-5,7-dihydro-pyrrolo[3,4-b]pyridin-6-yl)-2,2,4,4-tetramethylcyclobutoxy) benzonitrile], for which the “Dmax (%)” value (AR degradation, VCaP cells, 16 h, ELISA, Table 3-1) is “+ (<40%)”. Moreover, the DC50 under setting [1] was more than 300 nM.

For `CC(=O)O[C@@H]1C[C@H](C(=O)NC2(c3ccc(-c4scnc4C)cc3)CC2)N(C(=O)[C@@H](NC(=O)COCCCCC#Cc2ccc(C(=O)N[C@H]3C(C)(C)[C@H](Oc4ccc(C#N)c(Br)c4)C3(C)C)cc2)C(C)(C)C)C1` [Compound 8, (3R,5R)-1-((S)-2-(2-((6-(4-(((1R,3R)-3-(3-bromo-4-cyanophenoxy)-2,2,4,4-tetramethylcyclobutyl)carbamoyl)phenyl)hex-5-yn-1-yl)oxy)acetylamino)-3,3-dimethylbutyryl)-5-((1-(4-(4-methylthiazol-5-yl)phenyl)cyclopropyl)carbamoyl) pyrrolidin-3-yl acetate], the inhibition at 0.1 µM (VCaP cells, 16 h, ELISA) was in the range of 25 to 49%.

Take `N#Cc1ccc(O[C@H]2CC[C@H](NC(=O)c3cnc(N4CCC5(CN(CC6CCN(c7cc8c(cc7F)C(=O)N(C7CCC(=O)NC7=O)C8=O)CC6)C5)C4)cn3)CC2)cc1Cl` (stereo partly drawn) [Compound 189, N-((1r,4r)-4-(3-chloro-4-cyanophenoxy)cyclohexyl)-5-(2-((1-(2-(2,6-dioxopiperidin-3-yl)-6-fluoro-1,3-dioxoisoindolin-5-yl)piperidine-4-yl)methyl)-2,6-diazaspiro[3.4]octan-6-yl)pyrazine-2-carboxamide]: the DC50 under setting [1] is less than 10 nM. Also, under setting [2], the Dmax was more than 80%.

As to `CC1(C)[C@H](Oc2ccc(C#N)c(Cl)c2)C(C)(C)[C@H]1N1Cc2nc(C#C[C@H]3C[C@H](N4CCN(c5ccc6c(c5)C(=O)N(C5CCC(=O)NC5=O)C6=O)CC4)C3)ccc2C1=O` (stereo partly drawn) [Compound 355], under setting [1], the DC50 was less than 10 nM. The Dmax under setting [2] is more than 80%.

As to `N#Cc1ccc(O[C@H]2CC[C@H](NC(=O)c3ccc(N4CC5(CN(CC6CCN(c7cc8c(cc7F)C(=O)N(C7CCC(=O)NC7=O)C8=O)CC6)C5)C4)nn3)CC2)cc1Cl` (stereo partly drawn) [Compound 124], the DC50 under setting [1] was less than 10 nM. The Dmax under setting [2] was more than 80%.

With `[2H]C([2H])([2H])Oc1cc(O[C@H]2CC[C@H](NC(=O)c3cnc(N4CCC(CN5CCC6(CC5)CN(c5ccc7c(c5)C(=O)N(C5CCC(=O)NC5=O)C7=O)C6)CC4)nn3)CC2)ccc1C#N` (stereo partly drawn) [Compound 197, N-((1r,4r)-4-(4-cyano-3-(methoxy-d3)phenoxy)cyclohexyl)-3-(4-((2-(2-(2,6-dioxopiperidin-3-yl)-1,3-dioxoisoindolin-5-yl)-2,7-diazaspiro[3.5]nonan-7-yl)methyl)piperidin-1-yl)-1,2,4-triazine-6-carboxamide], under “VCaP cells, 16 h, ELISA”, the inhibition at 0.1 µM was more than 80%.

Turning to `CC1(C)[C@H](Oc2ccc(C#N)c(Cl)c2)C(C)(C)[C@H]1N1Cc2nc(C#C[C@H]3CC[C@H](N4CCN(c5cc6c(cc5F)C(=O)N(C5CCC(=O)NC5=O)C6=O)CC4)CC3)cnc2C1=O` (stereo partly drawn) [Compound 380], the DC50 under setting [1] lay in the range of 10 to 100 nM. Also, the Dmax under setting [2] lay within 60 to 80%.

Consider `COc1cc(O[C@H]2CC[C@H](NC(=O)c3ccc(N4CCC(CN5CCC6(CC5)CN(c5ccc7c(c5)C(=O)N(C5CCC(=O)NC5=O)C7=O)C6)CC4)nn3)CC2)ccc1C#N` (stereo partly drawn) [Compound 276, N-((1r,4r)-4-(4-cyano-3-methoxyphenoxy)cyclohexyl)-6-(4-((2-(2-(2,6-dioxopiperidin-3-yl)-1,3-dioxoisoindolin-5-yl)-2,7-diazaspiro[3.5]nonan-7-yl)methyl)piperidin-1-yl)pyridazine-3-carboxamide], for which the DC50 under setting [1] was less than 10 nM. Further, the Dmax under setting [2] is more than 80%.

Take `CC1(C)[C@H](Oc2ccc(C#N)c(Cl)c2)C(C)(C)[C@H]1N1Cc2nc(C#CC3CC(N4CC5CN(c6ccc7c(c6)C(=O)N(C6CCC(=O)NC6=O)C7=O)CC5C4)C3)ccc2C1=O` (stereo partly drawn) [Compound 359, 2-Chloro-4-((1r,3r)-3-(2-((3-(5-(2-(2,6-dioxopiperidin-3-yl)-1,3-dioxoisoindolin-5-yl)hexahydropyrrolo[3,4-c]pyrrol-2(1H)-yl)cyclobutyl)ethynyl)-5-oxo-5,7-dihydro-6H-pyrrolo[3,4-b]pyridin-6-yl)-2,2,4,4-tetramethylcyclobutoxy)benzonitrile]: the DC50 under setting [1] was in the range of 10 to 100 nM.

As for `CC1(C)C(Oc2ccc(C#N)c(Cl)c2)C(C)(C)C1N1Cc2nc(N3CCC(CN4CCN(c5cc6c(cc5F)C(=O)N([C@@H]5CCC(=O)NC5=O)C6)CC4)CC3)ccc2C1=O` (stereo partly drawn) [Compound 212], the “% degradation” value is “C (key: A: >80%; B: 79%-50%; C: 49%-25%; D: <25%)”.

In the case of `N#Cc1ccc(O[C@H]2CC[C@H](NC(=O)c3ccc(N4CCC(N5CC6(CCN(c7cc8c(cc7F)C(=O)N(C7CCC(=O)NC7=O)C8=O)CC6)C5)CC4)nn3)CC2)cc1C(F)(F)F` (stereo partly drawn) [Compound 79, N-((1r,4r)-4-(4-cyano-3-(trifluoromethyl)phenoxy)cyclohexyl)-6-(4-(7-(2-(2,6-dioxopiperidin-3-yl)-6-fluoro-1,3-dioxoisoindolin-5-yl)-2,7-diazaspiro[3.5]nonan-2-yl)piperidin-1-yl)pyridazine-3-formamide], under setting [1], the DC50 was 10 to 100 nM. Moreover, the Dmax under setting [2] is more than 80%.

As to `N#Cc1ccc(O[C@H]2CC[C@H](NC(=O)c3cnc(N4CCC(CN5CCC6(CC5)CN(c5ccc7c(c5)C(=O)N(C5CCC(=O)NC5=O)C7=O)C6)CC4)nc3)CC2)cc1Cl` (stereo partly drawn) [Compound 267], under setting [1], the DC50 was less than 10 nM. Besides, the Dmax under setting [2] is more than 80%.

In the case of `N#Cc1ccc(O[C@H]2CC[C@H](NC(=O)c3cnc(N4CCC(CN5CCC6(CC5)CN(c5cc7c(cc5F)C(=O)N(C5CCC(=O)NC5=O)C7=O)C6)CC4)cn3)CC2)cc1Cl` (stereo partly drawn) [Compound 233], the DC50 under setting [1] was less than 10 nM. Under setting [2], the Dmax is more than 80%.
